Results as given in patent US12065399B2, “Arylsulfonamide derivatives” (Hoffmann-La Roche Inc., priority 2019, dated 2024).
Counter-ions that a name gives are not always drawn.

biological target: human mGlu4 receptor (Homo sapiens (Human), UniProt Q14833); test: Intracellular Ca2+ mobilization assay (FLIPR), mGlu4 NAM; format: cell-based; details: HEK-293 cells stably transfected with human mGlu4; inhibition of L-AP4 (EC80) response; IC50
Experimental: 2.1) Intracellular Ca^2+ Mobilization Assay (FLIPR)
A monoclonal HEK-293 cell line stably transfected with a cDNA encoding for the human mGlu4 receptor was generated. Cells were cultured according to standard protocols (Freshney, 2000) in Dulbecco's Modified Eagle Medium with high glucose supplemented with 1 mM glutamine, 10% (vol/vol) heat-inactivated bovine calf serum, penicillin/streptomycin, 50 μg/ml hygromycin and 15 μg/ml blasticidin (all cell culture reagents and antibiotics from Invitrogen, Basel, Switzerland).
About 24 hrs before an experiment, 5×10^4 cells/well were seeded in poly-D-lysine coated, black/clear-bottomed 96-well plates. The cells were loaded with 2.5 μM Fluo-4AM in loading buffer (1×HBSS, 20 mM HEPES) for 1 hr at 37° C. and washed five times with loading buffer. The cells were transferred into a Functional Drug Screening System 7000 (Hamamatsu, Paris, France), and 11 half logarithmic serial dilutions of test compound at 37° C. were added and the cells were incubated for 10-30 min. with on-line recording of fluorescence. Following this pre-incubation step, the agonist (2S)-2-amino-4-phosphonobutanoic acid (L-AP4) was added to the cells at a concentration corresponding to EC80 with on-line recording of fluorescence; in order to account for day-to-day variations in the responsiveness of cells, the EC80 of L-AP4 was determined immediately ahead of each experiment by recording of a full dose-response curve of L-AP4.
Responses were measured as peak increase in fluorescence minus basal (i.e. fluorescence without addition of L-AP4), normalized to the maximal stimulatory effect obtained with saturating concentrations of L-AP4. Graphs were plotted with the % maximal stimulatory using XLfit, a curve fitting program that iteratively plots the data using Levenburg Marquardt algorithm. The single site competition analysis equation used was y=A+((B-A)/(1+((x/C)D))), where y is the % maximal stimulatory effect, A is the minimum y, B is the maximum y, C is the IC50, x is the log 10 of the concentration of the competing compound and D is the slope of the curve (the Hill Coefficient). From these curves the IC50 (drug concentration at which 50% of the receptor activation achieved from the addition of L-AP4 in the experiment was inhibited), the Hill coefficient as well as the maximal response in % of the maximal stimulatory effect obtained with saturating concentrations of L-AP4 were calculated (see FIG. 1).

Chain of human mGlu4 receptor (Q14833 33-912): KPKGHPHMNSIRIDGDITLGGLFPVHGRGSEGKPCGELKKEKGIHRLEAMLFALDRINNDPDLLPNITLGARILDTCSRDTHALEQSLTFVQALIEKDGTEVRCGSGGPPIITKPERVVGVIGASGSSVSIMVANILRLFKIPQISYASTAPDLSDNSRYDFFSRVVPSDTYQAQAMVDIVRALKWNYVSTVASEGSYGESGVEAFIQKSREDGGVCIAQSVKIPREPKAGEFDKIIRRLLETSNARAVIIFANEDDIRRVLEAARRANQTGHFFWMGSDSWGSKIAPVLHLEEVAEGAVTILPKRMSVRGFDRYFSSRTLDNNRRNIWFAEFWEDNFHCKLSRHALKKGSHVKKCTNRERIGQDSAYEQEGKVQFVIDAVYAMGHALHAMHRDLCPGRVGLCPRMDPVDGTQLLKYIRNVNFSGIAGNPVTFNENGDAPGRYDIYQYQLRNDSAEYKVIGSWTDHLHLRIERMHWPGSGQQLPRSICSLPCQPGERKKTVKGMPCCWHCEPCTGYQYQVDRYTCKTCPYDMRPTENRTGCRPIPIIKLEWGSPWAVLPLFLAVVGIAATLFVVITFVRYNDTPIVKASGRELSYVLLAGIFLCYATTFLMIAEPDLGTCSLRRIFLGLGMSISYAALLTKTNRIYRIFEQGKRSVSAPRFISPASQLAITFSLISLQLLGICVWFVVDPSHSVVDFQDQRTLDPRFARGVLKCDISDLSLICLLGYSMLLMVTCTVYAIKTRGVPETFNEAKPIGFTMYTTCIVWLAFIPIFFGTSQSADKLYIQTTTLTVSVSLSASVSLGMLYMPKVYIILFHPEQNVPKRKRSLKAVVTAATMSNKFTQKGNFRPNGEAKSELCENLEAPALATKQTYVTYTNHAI

How did the EC50 turn out when `O=S(=O)(Nc1c(F)cc(C#Cc2cncc(F)c2)cc1F)c1cccc(Cl)c1Cl` [Example 13, 2,3-dichloro-N-[2,6-difluoro-4-[2-(5-fluoro-3-pyridyl)ethynyl]phenyl]benzenesulfonamide] was run?
Its EC50 is 556 nM.

For `O=S(=O)(Nc1c(F)cc(C#Cc2cncc(F)c2)cc1F)c1cccc(Cl)c1` [Example 14, 3-chloro-N-[2,6-difluoro-4-[2-(5-fluoro-3-pyridyl)ethynyl]phenyl]benzenesulfonamide], which EC50 is on record?
Its EC50 is 1050 nM.

For `Cc1cccc(C#Cc2cc(F)c(NS(=O)(=O)c3cc(C)cc(F)c3C)c(F)c2)c1` [Example 51, N-[2,6-difluoro-4-[2-(m-tolyl)ethynyl]phenyl]-3-fluoro-2,5-dimethyl-benzenesulfonamide], which EC50 is on record?
Its EC50 is 1410 nM.

For `O=S(=O)(Nc1c(F)cc(C#Cc2ccccc2)cc1F)c1cccc(F)c1Cl` [Example 17, 2-chloro-N-[2,6-difluoro-4-(2-phenylethynyl)phenyl]-3-fluoro-benzenesulfonamide], which EC50 is on record?
Its EC50 is 734 nM.

For `O=S(=O)(Nc1c(F)cc(C#Cc2ccccc2)cc1F)c1cccc(C(F)(F)F)c1Cl` [Example 33, 2-chloro-N-[2,6-difluoro-4-(2-phenylethynyl)phenyl]-3-(trifluoromethyl)benzenesulfonamide], which EC50 is on record?
Its EC50 is 2080 nM.

How did the EC50 turn out when `Cc1nn(C)cc1S(=O)(=O)Nc1c(F)cc(C#Cc2ccccc2)cc1F` [Example 41, N-[2,6-difluoro-4-(2-phenylethynyl)phenyl]-1,3-dimethyl-pyrazole-4-sulfonamide; 2,2,2-trifluoroacetic acid salt] was run?
The EC50 was 9350 nM.

For `Cc1cncc(C#Cc2cc(F)c(NS(=O)(=O)c3cccc(Cl)c3C)c(F)c2)c1` [Example 56, 3-chloro-N-[2,6-difluoro-4-[2-(5-methyl-3-pyridyl)ethynyl]phenyl]-2-methyl-benzenesulfonamide; 2,2,2-trifluoroacetic acid], which EC50 is on record?
The EC50 was 1470 nM.

Which EC50 does the source give for `Cc1ncccc1S(=O)(=O)Nc1c(F)cc(C#Cc2ccccc2)cc1F` [Example 29, N-[2,6-difluoro-4-(2-phenylethynyl)phenyl]-2-methyl-pyridine-3-sulfonamide] here?
The EC50 was 2890 nM.

With `Cc1ccccc1S(=O)(=O)Nc1c(F)cc(C#Cc2ccccc2)cc1F` [Example 5, N-[2,6-difluoro-4-(2-phenylethynyl)phenyl]-2-methyl-benzenesulfonamide] as the compound, how does the EC50 read?
Its EC50 is 3720 nM.

Which EC50 does the source give for `O=S(=O)(Nc1c(F)cc(C#Cc2ccccc2)cc1F)c1ccccn1` [Example 10, N-[2,6-difluoro-4-(2-phenylethynyl)phenyl]pyridine-2-sulfonamide] here?
The EC50 was 14300 nM.

For `O=S(=O)(Nc1c(F)cc(C#Cc2ccccc2)cc1F)c1cccc(Cl)c1C(F)(F)F` [Example 21, 3-chloro-N-[2,6-difluoro-4-(2-phenylethynyl)phenyl]-2-(trifluoromethyl)benzenesulfonamide], which EC50 is on record?
Its EC50 is 15300 nM.

`Cc1c(Cl)cccc1S(=O)(=O)Nc1c(F)cc(C#Cc2cccc(F)c2)cc1F` [Example 43, 3-chloro-N-[2,6-difluoro-4-[2-(3-fluorophenyl)ethynyl]phenyl]-2-methyl-benzenesulfonamide] was tested. Which EC50 did it give?
Its EC50 is 1270 nM.

For `COc1c(F)cccc1S(=O)(=O)Nc1c(F)cc(C#Cc2ccccc2)cc1F` [Example 46, N-[2,6-difluoro-4-(2-phenylethynyl)phenyl]-3-fluoro-2-methoxy-benzenesulfonamide], which EC50 is on record?
Its EC50 is 2110 nM.

`Cc1ccc(C)c(S(=O)(=O)Nc2c(F)cc(C#Cc3ccccc3)cc2F)c1` [Example 30, N-[2,6-difluoro-4-(2-phenylethynyl)phenyl]-2,5-dimethyl-benzenesulfonamide] was tested. Which EC50 did it give?
Its EC50 is 1340 nM.

With `Cc1cc(Cl)c(C)c(S(=O)(=O)Nc2c(F)cc(C#Cc3cncc(F)c3)cc2F)c1` [Example 54, 3-chloro-N-(2,6-difluoro-4-((5-fluoropyridin-3-yl)ethynyl)phenyl)-2,5-dimethylbenzenesulfonamide 2,2,2-trifluoroacetate] as the compound, how does the EC50 read?
The EC50 was 918 nM.

`O=S(=O)(Nc1c(F)cc(C#Cc2ccccc2)cc1F)c1cccnc1Cl` [Example 22, 2-chloro-N-[2,6-difluoro-4-(2-phenylethynyl)phenyl]pyridine-3-sulfonamide] was tested. Which EC50 did it give?
Its EC50 is 4330 nM.

`O=S(=O)(Nc1c(F)cc(C#Cc2cncc(F)c2)cc1F)c1ccccc1Cl` [Example 12, 2-chloro-N-[2,6-difluoro-4-[2-(5-fluoro-3-pyridyl)ethynyl]phenyl]benzenesulfonamide] was tested. Which EC50 did it give?
The EC50 was 2960 nM.

`Cc1c(F)cccc1S(=O)(=O)Nc1c(F)cc(C#Cc2cncc(F)c2)cc1F` [Example 57, N-[2,6-difluoro-4-[2-(5-fluoro-3-pyridyl)ethynyl]phenyl]-3-fluoro-2-methyl-benzenesulfonamide; 2,2,2-trifluoroacetic acid] was tested. Which EC50 did it give?
The EC50 was 575 nM.

How did the EC50 turn out when `COc1c(Cl)cccc1S(=O)(=O)Nc1c(F)cc(C#Cc2cncc(F)c2)cc1F` [Example 15, 3-chloro-N-[2,6-difluoro-4-[2-(5-fluoro-3-pyridyl)ethynyl]phenyl]-2-methoxy-benzenesulfonamide] was run?
The EC50 was 778 nM.

`O=S(=O)(Nc1c(F)cc(C#Cc2ccccc2)cc1F)c1ccccc1F` [Example 6, N-[2,6-difluoro-4-(2-phenylethynyl)phenyl]-2-fluoro-benzenesulfonamide] was tested. Which EC50 did it give?
The EC50 was 4640 nM.

How did the EC50 turn out when `O=S(=O)(Nc1c(F)cc(C#Cc2ccccc2)cc1F)c1cncc(Cl)c1` [Example 23, 5-chloro-N-[2,6-difluoro-4-(2-phenylethynyl)phenyl]pyridine-3-sulfonamide] was run?
Its EC50 is 3110 nM.

With `Cn1ccc(S(=O)(=O)Nc2c(F)cc(C#Cc3ccccc3)cc2F)n1` [Example 26, N-[2,6-difluoro-4-(2-phenylethynyl)phenyl]-1-methyl-pyrazole-3-sulfonamide] as the compound, how does the EC50 read?
The EC50 was 16000 nM.

`Cc1cc(F)c(C)c(S(=O)(=O)Nc2c(F)cc(C#Cc3cccc(Cl)c3)cc2F)c1` [Example 48, N-[4-[2-(3-chlorophenyl)ethynyl]-2,6-difluoro-phenyl]-3-fluoro-2,5-dimethyl-benzenesulfonamide] was tested. Which EC50 did it give?
Its EC50 is 1250 nM.

How did the EC50 turn out when `O=S(=O)(Nc1c(F)cc(C#Cc2ccccc2)cc1F)c1ccccc1Cl` [Example 1, 2-chloro-N-[2,6-difluoro-4-(2-phenylethynyl)phenyl]benzenesulfonamide] was run?
The EC50 was 4280 nM.

`O=S(=O)(Nc1c(F)cc(C#Cc2cccnc2)cc1F)c1ccccc1Cl` [Example 9, 2-chloro-N-[2,6-difluoro-4-[2-(3-pyridyl)ethynyl]phenyl]benzenesulfonamide] was tested. Which EC50 did it give?
The EC50 was 14200 nM.
